In PMC10797614, “MYC-Targeting Inhibitors Generated from a Stereodiversified Bicyclic Peptide Library” (Journal of the American Chemical Society, 2024):
*1 amine or outer side, *2 acyl side, *3 side chain or, on linkers, in order; H or OH if unused. Where a SMILES comes first, the peptide text is derived from it. Bridges are numbered along the chain shown (N, C = ends). X1 = O=C([C@@H]1C[C@H](C=CCO[*:3])C[C@@H]1C=CCO[*:1])[*:2]

What was measured:
MYC [1] = target: T1, MYC (Homo sapiens, UniProt P01106); test: Cellular thermal shift assay (CETSA) with U87 cell lysate; type: binding; conditions: U87 cell lysate 1.481 mg/mL, 195 μL lysate + 19.5 μL peptide (1 mM in PBS); 50 to 65 °C for 3 min; Western blot; versus control
T1 construct: made in house; host or cells: E. coli BL21(DE3)
Experimental: To validate that NT-B2R could bind to MYC in complex biological environments, we performed cellular thermal shift assays using U87 cell lysates[34] (Figure 4A). U87 is a human glioblastoma cell line with known dependence on MYC activities.[35]−[37]
Liposome loading capacity quantification
200 μL of the liposome solution (4 mg/mL) was dried under vacuum and extracted with 50 μL of DMSO. The obtained solution was analyzed on a reverse-phase HPLC and the corresponding peptide peak was identified by mass spectrometry. The peptide concentration was then determined by comparing the peak area to that of a standard solution. The loading capacities were calculated accordingly.
Cells were seeded in a 96-well plate at 4 k/well and incubated overnight. Afterward, the cells were washed with complete media and treated with varying concentrations of peptide-loaded liposome or empty liposome. The final media volume was 200 μL in each well. […] The 96-well plate was shaken for 15 min on an orbital mixer in dark, and the fluorescence (540 nm excitation, 590 nm emission) intensities were read by a […]
U87 cells were detached by trypsin and resuspended in 5 mL of PBS(1x). […] The protein concentrations were determined by BCA assay.
To prepare the sample for the cellular thermal shift assay, the quantified cell lysate was adjusted to a final concentration of 1.481 mg/mL with lysis buffer. […]

MYC [2] = target: T1, MYC; test: Temperature-dependent circular dichroism spectroscopy; type: binding; conditions: NT-B2R 100 μM, MYC 0.1 mg/mL, 0.1 M phosphate buffer pH 7.4, 30 °C to 60 °C
Excerpt: To further study the nature of the interaction between NT-B2R and MYC, we leveraged temperature-dependent circular dichroism (CD) spectroscopy. Here, if no conformation change was involved, the CD spectra of the MYC/NT-B2R mixture would be the addition of each component’s spectra (Figure 3J, calculated). However, we observed drastically different CD spectra (Figure 3J, measured and difference).
Protein thermal shift assay with GlomeltTM
Follow the Biotium’s protocol PI-3302133022. The reactions were set up in qPCR tubes, for each tube 1 μg recombinant MYC protein (1 μg/μL, 1 μL), GlomeltTM dye (10x, 2 μL), peptide ligand (2x, 10 uL, final concentration 500 μM), PBS (1x, 7 uL) to make a total volume of 20 μL with triplicate. For control group, PBS (1x, 17 μL) was used without peptide ligand. […] The resulting curve was fitted with a Boltzmann curve within the range of 45-60 °C and Tm was calculated from the fitted curve. […]
NT-B2R peptide and MYC protein were diluted to the final working concentrations of 100 μM and 0.1 mg/mL respectively. […] Spectra in the 180-280 nm range were recorded in a 1 mm path length cell.
The collected CD spectra were processed in OriginProTM. […] Spectra addition and subtraction were performed before the matrix conversion to generate the calculated and difference […]

[3] = system: MYC and phosphor-MYC (p-MYC, T58); test: Western blot of MYC and phosphor-MYC levels in treated U87 cells; type: cell-based, human; conditions: liposome-delivered peptide
Excerpt: We then evaluated the biological effects of NT-B2R in cells.

T1 sequence (P01106 16-454): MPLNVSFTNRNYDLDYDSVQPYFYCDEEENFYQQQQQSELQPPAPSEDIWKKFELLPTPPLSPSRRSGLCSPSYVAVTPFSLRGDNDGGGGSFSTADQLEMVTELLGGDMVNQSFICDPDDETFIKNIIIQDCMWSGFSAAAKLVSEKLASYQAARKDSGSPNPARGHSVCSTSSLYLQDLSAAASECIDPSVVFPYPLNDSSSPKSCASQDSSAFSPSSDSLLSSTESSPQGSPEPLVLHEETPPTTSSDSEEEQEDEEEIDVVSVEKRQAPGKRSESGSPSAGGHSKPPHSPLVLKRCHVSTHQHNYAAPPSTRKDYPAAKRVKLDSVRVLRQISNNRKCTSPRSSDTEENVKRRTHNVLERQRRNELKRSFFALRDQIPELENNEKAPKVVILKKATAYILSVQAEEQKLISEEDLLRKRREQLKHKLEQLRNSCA

## CC(C)C[C@@H]1NC(=O)[C@H](CCCNC(=N)N)NC(=O)[C@@H]2CCCCNC(=O)[C@@H]3C[C@H](C=CCOC(=O)CC[C@@H](C(N)=O)NC1=O)C[C@@H]3C=CCOC(=O)CC[C@H](N)C(=O)N[C@@H](Cc1c[nH]c3ccccc13)C(=O)N1CCC[C@H]1C(=O)N[C@@H](Cc1c[nH]cn1)C(=O)N[C@@H](CCCNC(=N)N)C(=O)N2 [NT-B2R] (H-EWPHRKRLE-NH2; linker 1-6-9 via X1; N-terminus and C-terminus assumed)
MYC [1]
  increase of MYC melting temperature, CETSA: ~2 °
MYC [2]
  CD spectra of MYC/peptide mixture versus calculated sum (in words): significant changes in the conformation landscape
[3]
  expression and phosphorylation levels of MYC (Western blot): did not alter
